Article PMC3898838, “Design, Synthesis, and Biological Evaluation of an Allosteric Inhibitor of HSET that Targets Cancer Cells with Supernumerary Centrosomes” (Chemistry & Biology, 2013)

Tested on: NHDF cells
Assay: Time-lapse microscopy, mitotic fate
Format: cell-based, human
Conditions: 200 μM
Procedure: Cells were synchronized in G2-M by incubation at 37°C and 5% CO2 for 24 hr with 9 μM of the CDK1 inhibitor RO-3306 (Merck). Cells were released by removal of the RO-3306 and four washings of 10 min each, at 37°C, with prewarmed culture media + 10% FBS. N1E-115 cells were transfected with siRNA (Supplemental Experimental Procedures) and imaged from 6 hr after transfection. Some RO-3306-synchronized cells were released with 200 μM CW069, 100 μM monastrol, or 0.2% DMSO, and imaging started immediately or 1 hr after treatment. Imaging was carried out for 24 hr, or for 4 hr in the case of the CW069/monastrol cotreatment. Imaging was conducted every 5 min in a humidified chamber with 37°C and 5% CO2, using a Nikon Eclipse TE2000-E microscope, and analyzed with NIS-Elements software (Nikon, Tokyo, Japan). The morphology of cells in mitosis and the mitotic fate (bipolar division, multipolar division, or cell death) were analyzed.

Q: Which multipolar anaphase formation does the source give for `O=C(O)c1cc(I)ccc1NC(=O)[C@H](Cc1ccccc1)NCc1ccccc1` [CW069] here?
A: No similar increase in multipolar anaphase formation
